From US6413931B1, “Peptide inhibitor of fibrinogen blood clotting” (The Texas A&M University System, priority 1999, dated 2002)

Tests used:
[1] = target: T1, Human Fibrinogen/Bovine Thrombin (Homo sapiens, UniProt P02671+P02675+P02679); assay: Clotting assay (fibrinogen plus thrombin, time to gel-like clot); format: biochemical; settings: for Human Fibrinogen/Bovine Thrombin Clotting Time: 1 mg/ml fibrinogen, 1 unit/ml thrombin
T1 construct: purchased Chromogenix (Sweden)
T1 sequence (P02671 20-629 limits assumed): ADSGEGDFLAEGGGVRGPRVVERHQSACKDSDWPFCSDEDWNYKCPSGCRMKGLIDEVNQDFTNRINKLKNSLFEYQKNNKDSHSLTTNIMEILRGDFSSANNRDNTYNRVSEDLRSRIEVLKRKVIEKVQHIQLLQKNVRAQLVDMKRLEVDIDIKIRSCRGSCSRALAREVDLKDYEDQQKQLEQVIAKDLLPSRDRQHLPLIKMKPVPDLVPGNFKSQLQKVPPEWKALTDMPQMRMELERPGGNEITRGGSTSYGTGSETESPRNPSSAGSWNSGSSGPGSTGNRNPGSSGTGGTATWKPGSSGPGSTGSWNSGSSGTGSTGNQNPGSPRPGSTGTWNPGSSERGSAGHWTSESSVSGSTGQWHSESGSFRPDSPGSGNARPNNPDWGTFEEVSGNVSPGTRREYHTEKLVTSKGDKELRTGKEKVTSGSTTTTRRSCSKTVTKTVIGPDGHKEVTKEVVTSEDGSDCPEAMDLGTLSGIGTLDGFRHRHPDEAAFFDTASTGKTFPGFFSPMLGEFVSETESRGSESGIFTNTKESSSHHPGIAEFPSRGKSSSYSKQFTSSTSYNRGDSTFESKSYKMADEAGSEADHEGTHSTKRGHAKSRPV
T1 sequence (P02675 31-491): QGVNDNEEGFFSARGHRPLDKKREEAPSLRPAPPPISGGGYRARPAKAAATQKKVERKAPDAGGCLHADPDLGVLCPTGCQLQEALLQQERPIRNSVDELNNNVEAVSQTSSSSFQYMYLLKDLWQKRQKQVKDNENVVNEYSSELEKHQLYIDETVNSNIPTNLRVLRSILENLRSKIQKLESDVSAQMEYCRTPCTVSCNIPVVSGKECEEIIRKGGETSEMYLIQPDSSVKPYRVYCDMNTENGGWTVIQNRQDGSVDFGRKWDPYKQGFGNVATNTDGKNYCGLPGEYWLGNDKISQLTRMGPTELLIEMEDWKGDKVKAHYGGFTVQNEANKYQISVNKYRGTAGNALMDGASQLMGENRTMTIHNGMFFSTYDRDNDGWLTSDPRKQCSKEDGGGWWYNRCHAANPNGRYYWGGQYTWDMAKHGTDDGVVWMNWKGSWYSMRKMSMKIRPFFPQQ
T1 sequence (P02679 27-433 limits assumed): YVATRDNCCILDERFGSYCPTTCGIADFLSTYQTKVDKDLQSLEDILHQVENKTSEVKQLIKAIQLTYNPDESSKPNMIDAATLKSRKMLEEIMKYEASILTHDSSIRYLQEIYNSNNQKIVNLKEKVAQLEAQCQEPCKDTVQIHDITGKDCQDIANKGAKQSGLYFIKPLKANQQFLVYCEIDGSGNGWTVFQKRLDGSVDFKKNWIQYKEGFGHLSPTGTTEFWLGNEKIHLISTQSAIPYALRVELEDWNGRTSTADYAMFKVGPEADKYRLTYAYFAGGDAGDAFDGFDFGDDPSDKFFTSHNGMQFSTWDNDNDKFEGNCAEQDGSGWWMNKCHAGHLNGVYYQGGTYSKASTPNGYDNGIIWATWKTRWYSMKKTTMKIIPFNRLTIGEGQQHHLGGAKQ
Procedure: These tests were conducted by incubating 1 mg of human fibrinogen with desired peptides in 20 mM Tris-HCl, 150 mM NaCl, pH 7.5 in the presence or absence of Zn^2+ for at least 30 min followed by adding 1 unit of bovine thrombin. The total volume of each reaction was 1 ml and the reaction was observed by counting the time for allowing the solution to form a gel like clot in the test tube.
A four amino acid long peptide, G-P-R-P, binds to the γ chain of fibrinogen D fragment and prolongs the clotting time in a closed system containing fibrinogen and thrombin (Laudano, 1978; Laudano, 1980).

fibrinogen D fragment = target: T2, fibrinogen D fragment (Homo sapiens, UniProt P02671+P02675+P02679, DEL434-453); settings: Laudano, 1978; read-out: reported binding affinity KD to fibrinogen D fragment; cited from earlier work
T2 construct: G-P-R-P peptide to fibrinogen D fragment
T2 sequence (P02671 130-216 limits assumed): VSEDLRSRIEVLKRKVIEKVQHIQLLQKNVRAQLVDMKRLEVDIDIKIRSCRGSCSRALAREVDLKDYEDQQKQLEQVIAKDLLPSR
T2 sequence (P02675 164-491 limits assumed): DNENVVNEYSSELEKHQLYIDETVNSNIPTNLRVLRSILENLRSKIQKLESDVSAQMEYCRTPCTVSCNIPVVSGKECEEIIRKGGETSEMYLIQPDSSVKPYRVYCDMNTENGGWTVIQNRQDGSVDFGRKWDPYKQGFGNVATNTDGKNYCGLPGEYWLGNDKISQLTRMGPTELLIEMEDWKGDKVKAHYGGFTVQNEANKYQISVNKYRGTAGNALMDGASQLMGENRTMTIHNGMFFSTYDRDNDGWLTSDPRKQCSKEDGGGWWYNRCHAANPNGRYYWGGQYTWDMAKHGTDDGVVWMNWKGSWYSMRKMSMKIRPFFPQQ
T2 sequence (P02679 112-433 limits assumed): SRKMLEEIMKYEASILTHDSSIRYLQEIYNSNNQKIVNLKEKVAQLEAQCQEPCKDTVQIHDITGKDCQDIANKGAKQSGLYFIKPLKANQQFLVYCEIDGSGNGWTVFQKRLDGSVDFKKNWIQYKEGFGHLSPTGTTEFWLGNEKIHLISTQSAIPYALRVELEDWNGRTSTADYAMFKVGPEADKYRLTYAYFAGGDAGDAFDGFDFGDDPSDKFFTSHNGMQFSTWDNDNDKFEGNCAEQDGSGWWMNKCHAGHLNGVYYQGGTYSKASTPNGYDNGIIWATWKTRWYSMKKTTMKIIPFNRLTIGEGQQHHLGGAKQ

fibrinogen D fragments = target: T3, fibrinogen D fragments (Homo sapiens, UniProt P02671+P02675+P02679, DEL434-453); assay: Inhibition binding assay: competition with MBP-MD4 for binding to fibrinogen D fragments
T3 construct: Fibrinogen D and E fragment were purchased from Calbiochem; purchased Calbiochem (La Jolla, Calif.)
T3 sequence (P02671 130-216 limits assumed): T2 sequence (P02671 130-216 limits assumed)
T3 sequence (P02675 164-491 limits assumed): T2 sequence (P02675 164-491 limits assumed)
T3 sequence (P02679 112-433 limits assumed): T2 sequence (P02679 112-433 limits assumed)
Procedure: FIG. 8. Competitive binding of MD4 peptide in the interaction of MBP-MD4 to fibrinogen D fragments.
The protocol was based on the enzyme-linked immunosorbant binding assay as described above. However, the inhibitors were mixed with biotin labeled protein and allowed to bind to coated molecules in microtiter wells and incubated for 1 h at room temperature.
To measure the binding affinity of MD4 peptide to fibrinogen D fragments, fluorescence polarization experiments were carried out by incubating fluorescein labeled MD4 peptide with increasing concentration of fibrinogen D fragments and observing the change of polarization. The binding affinity of isolated MD4 peptide to fibrinogen D fragments in the presence of 15 uM ZnCl2 was saturable and the apparent dissociation constant, KD, was (8.4±1.6)×10^−8 M (FIG. 7). Competitive binding to D fragment was compared for a four amino acid peptide, G-P-R-P which is known to bind to fibrinogen γ chain (Pratt, 1997) and to prevent fibrinogen from forming fibrin (Laudano, 1978; Laudano, 1980), reduced and alkylated MD4, unlabeled MD4 peptide, and MBP-MD4. […] MD4 peptide binds to fibrinogen α and β chains in Western ligand binding assays whereas G-P-R-P peptide binds to the γ chain of fibrinogen, therefore, both peptides bound to different sites in D fragment.

Human Fibrinogen/Bovine Thrombin Clotting Time ([1]; 1 mM EDTA) | delay of clot formation ([1]; 100 uM peptide, fibrinogen and thrombin, 15 uM ZnCl2) | Human Fibrinogen/Bovine Thrombin Clotting Time ([1]; peptide 0.1 mM, 20 mM Tris, 150 mM NaCl, 15 μM ZnCl2, pH 7.4) | Compound | Kd (fibrinogen D fragment) | competition with MBP-MD4 for binding to fibrinogen D fragments (fibrinogen D fragments)
12 min | – | – | O=C(O)CN(CCN(CC(=O)O)CC(=O)O)CC(=O)O [EDTA] | – | –
– | 10 min | 10 min | G-P-R-P | 17 µM | Neither G-P-R-P peptide, nor reduced and alkylated MD4 peptide could inhibit
